Assays:
UACC-257 = experiment: Growth of human UACC257 cells at 10 uM incubated for 48 hrs by sulforhodamine B assay relative to control; conditions: UACC-257, 48 h
786-0 = experiment: Growth inhibition of human 786-0 cells at 10 uM incubated for 48 hrs by sulforhodamine B assay relative to control; type: functional; conditions: 786-0, 48 h, values are per cent of control
MDA-MB-468 = experiment: Growth inhibition of human MDA-MB-468 cells at 10 uM incubated for 48 hrs by sulforhodamine B assay relative to control; type: functional; conditions: MDA-MB-468, 48 h, values are per cent of control
SW-620 = experiment: Growth of human SW620 cells at 10 uM incubated for 48 hrs by sulforhodamine B assay relative to control; conditions: SW-620, 48 h
OVCAR-8 = experiment: Growth of human OVCAR8 cells at 10 uM incubated for 48 hrs by sulforhodamine B assay relative to control; conditions: OVCAR-8, 48 h
K562 = experiment: Growth of human K562 cells at 10 uM incubated for 48 hrs by sulforhodamine B assay relative to control; conditions: K562, 48 h
OVCAR-3 = experiment: Growth of human OVCAR3 cells at 10 uM incubated for 48 hrs by sulforhodamine B assay relative to control; conditions: OVCAR-3, 48 h
SNB-19 = experiment: Growth of human SNB19 cells at 10 uM incubated for 48 hrs by sulforhodamine B assay relative to control; conditions: SNB-19, 48 h
RPMI-8226 = experiment: Growth of human RPMI8226 cells at 10 uM incubated for 48 hrs by sulforhodamine B assay relative to control; conditions: RPMI-8226, 48 h
UACC-62 = experiment: Growth of human UACC62 cells at 10 uM incubated for 48 hrs by sulforhodamine B assay relative to control; conditions: UACC-62, 48 h
Hs-578T = experiment: Growth inhibition of human Hs 578T cells at 10 uM incubated for 48 hrs by sulforhodamine B assay relative to control; type: functional; conditions: values are per cent of control
IGROV-1 = experiment: Growth of human IGROV1 cells at 10 uM incubated for 48 hrs by sulforhodamine B assay relative to control; conditions: IGROV-1, 48 h
OVCAR-5 = experiment: Growth of human OVCAR5 cells at 10 uM incubated for 48 hrs by sulforhodamine B assay relative to control; conditions: OVCAR-5, 48 h
SF-268 = experiment: Growth of human SF268 cells at 10 uM incubated for 48 hrs by sulforhodamine B assay relative to control; conditions: SF-268, 48 h
MDA-MB-435 = experiment: Growth of human MDA-MB-435 cells at 10 uM incubated for 48 hrs by sulforhodamine B assay relative to control; conditions: MDA-MB-435, 48 h
NCI-H23 = experiment: Growth inhibition of human NCI-H23 cells at 10 uM incubated for 48 hrs by sulforhodamine B assay relative to control; type: functional; conditions: NCI-H23, 48 h, values are per cent of control
HOP-62 = experiment: Growth of human HOP62 cells at 10 uM incubated for 48 hrs by sulforhodamine B assay relative to control; conditions: HOP-62, 48 h
SNB-75 = experiment: Growth of human SNB75 cells at 10 uM incubated for 48 hrs by sulforhodamine B assay relative to control; conditions: SNB-75, 48 h
MCF7 = experiment: Growth inhibition of human MCF7 cells at 10 uM incubated for 48 hrs by sulforhodamine B assay relative to control; type: functional; conditions: MCF7, 48 h, values are per cent of control
DU-145 = experiment: Growth inhibition of human DU145 cells at 10 uM incubated for 48 hrs by sulforhodamine B assay relative to control; type: functional; conditions: DU-145, 48 h, values are per cent of control
NCI-H522 = experiment: Growth of human NCI-H522 cells at 10 uM incubated for 48 hrs by sulforhodamine B assay relative to control; conditions: NCI-H522, 48 h
CAKI-1 = experiment: Growth inhibition of human Caki1 cells at 10 uM incubated for 48 hrs by sulforhodamine B assay relative to control; type: functional; conditions: CAKI-1, 48 h, values are per cent of control
SK-MEL-28 = experiment: Growth of human SK-MEL-28 cells at 10 uM incubated for 48 hrs by sulforhodamine B assay relative to control; conditions: SK-MEL-28, 48 h
EKVX = experiment: Growth of human EKVX cells at 10 uM incubated for 48 hrs by sulforhodamine B assay relative to control
A498 = experiment: Growth inhibition of human A498 cells at 10 uM incubated for 48 hrs by sulforhodamine B assay relative to control; type: functional; conditions: A498, 48 h, values are per cent of control
SN12C = experiment: Growth inhibition of human SN12C cells at 10 uM incubated for 48 hrs by sulforhodamine B assay relative to control; type: functional; conditions: values are per cent of control
NCI-H226 = experiment: Growth inhibition of human NCI-H226 cells at 10 uM incubated for 48 hrs by sulforhodamine B assay relative to control; type: functional; conditions: NCI-H226, 48 h, values are per cent of control
PC-3 = experiment: Growth inhibition of human PC3 cells at 10 uM incubated for 48 hrs by sulforhodamine B assay relative to control; type: functional; conditions: PC-3, 48 h, values are per cent of control
SK-MEL-5 = experiment: Growth of human SK-MEL-5 cells at 10 uM incubated for 48 hrs by sulforhodamine B assay relative to control; conditions: SK-MEL-5, 48 h
T47D = experiment: Growth inhibition of human T47D cells at 10 uM incubated for 48 hrs by sulforhodamine B assay relative to control; type: functional; conditions: values are per cent of control
TK-10 = experiment: Growth inhibition of human TK10 cells at 10 uM incubated for 48 hrs by sulforhodamine B assay relative to control; type: functional; conditions: TK-10, 48 h, values are per cent of control
SR = experiment: Growth of human SR cells at 10 uM incubated for 48 hrs by sulforhodamine B assay relative to control
HCC 2998 = experiment: Growth of human HCC2998 cells at 10 uM incubated for 48 hrs by sulforhodamine B assay relative to control; conditions: HCC 2998, 48 h

## CCS/C(Nc1ccccc1)=C(\C#N)C(=O)N/N=C\c1ccc(Cl)cc1Cl
UACC-257
  growth, % of control at 10 µM: 51.9%
786-0
  growth, % of control at 10 µM: 31.8%
MDA-MB-468
  growth, % of control at 10 µM: 19.6%
SW-620
  growth, % of control at 10 µM: 18.6%
OVCAR-8
  growth, % of control at 10 µM: 28.6%
K562
  growth, % of control at 10 µM: 7.35%
OVCAR-3
  growth, % of control at 10 µM: 1.46%
SNB-19
  growth, % of control at 10 µM: 19.6%
RPMI-8226
  growth, % of control at 10 µM: 9.68%
UACC-62
  growth, % of control at 10 µM: 26.6%
Hs-578T
  growth, % of control at 10 µM: -6.44%
IGROV-1
  growth, % of control at 10 µM: 49.1%
OVCAR-5
  growth, % of control at 10 µM: 72.5%
SF-268
  growth, % of control at 10 µM: 34%
MDA-MB-435
  growth, % of control at 10 µM: -34.5%
NCI-H23
  growth, % of control at 10 µM: 41.3%
HOP-62
  growth, % of control at 10 µM: 36.7%
SNB-75
  growth, % of control at 10 µM: -6.89%
MCF7
  growth, % of control at 10 µM: 19.3%
DU-145
  growth, % of control at 10 µM: 20%
NCI-H522
  growth, % of control at 10 µM: 1.02%
CAKI-1
  growth, % of control at 10 µM: 31.5%
SK-MEL-28
  growth, % of control at 10 µM: 60.5%
EKVX
  growth, % of control at 10 µM: 47.4%
A498
  growth, % of control at 10 µM: -2.1%
SN12C
  growth, % of control at 10 µM: 34.5%
NCI-H226
  growth, % of control at 10 µM: 37.7%
PC-3
  growth, % of control at 10 µM: 31.5%
SK-MEL-5
  growth, % of control at 10 µM: 12.4%
T47D
  growth, % of control at 10 µM: 17.8%
TK-10
  growth, % of control at 10 µM: 56.7%
SR
  growth, % of control at 10 µM: 19.5%
HCC 2998
  growth, % of control at 10 µM: 48.4%

## CC(C)(C)S/C(Nc1ccccc1)=C(\C#N)C(=O)N/N=C\c1ccc(Cl)cc1Cl
UACC-257
  growth, % of control at 10 µM: 92.5%
786-0
  growth, % of control at 10 µM: 97.8%
MDA-MB-468
  growth, % of control at 10 µM: 98.9%
SW-620
  growth, % of control at 10 µM: 105%
OVCAR-8
  growth, % of control at 10 µM: 97.3%
K562
  growth, % of control at 10 µM: 91.8%
OVCAR-3
  growth, % of control at 10 µM: 98.6%
SNB-19
  growth, % of control at 10 µM: 97.5%
RPMI-8226
  growth, % of control at 10 µM: 98.7%
UACC-62
  growth, % of control at 10 µM: 89.9%
Hs-578T
  growth, % of control at 10 µM: 90.1%
IGROV-1
  growth, % of control at 10 µM: 98.7%
OVCAR-5
  growth, % of control at 10 µM: 106%
SF-268
  growth, % of control at 10 µM: 99.7%
MDA-MB-435
  growth, % of control at 10 µM: 104%
NCI-H23
  growth, % of control at 10 µM: 92.5%
HOP-62
  growth, % of control at 10 µM: 98.1%
SNB-75
  growth, % of control at 10 µM: 102%
MCF7
  growth, % of control at 10 µM: 92.7%
DU-145
  growth, % of control at 10 µM: 113%
NCI-H522
  growth, % of control at 10 µM: 82.7%
CAKI-1
  growth, % of control at 10 µM: 98.4%
SK-MEL-28
  growth, % of control at 10 µM: 108%
EKVX
  growth, % of control at 10 µM: 101%
A498
  growth, % of control at 10 µM: 101%
SN12C
  growth, % of control at 10 µM: 101%
NCI-H226
  growth, % of control at 10 µM: 92.6%
PC-3
  growth, % of control at 10 µM: 96.3%
SK-MEL-5
  growth, % of control at 10 µM: 98.7%
T47D
  growth, % of control at 10 µM: 78.4%
TK-10
  growth, % of control at 10 µM: 99.1%
SR
  growth, % of control at 10 µM: 70%
HCC 2998
  growth, % of control at 10 µM: 98.6%

## CC(C)(C)S/C(Nc1ccccc1)=C(\C#N)C(=O)N/N=C\c1ccco1
UACC-257
  growth, % of control at 10 µM: 83%
786-0
  growth, % of control at 10 µM: 102%
MDA-MB-468
  growth, % of control at 10 µM: 95.8%
SW-620
  growth, % of control at 10 µM: 94.4%
OVCAR-8
  growth, % of control at 10 µM: 94.9%
K562
  growth, % of control at 10 µM: 100%
OVCAR-3
  growth, % of control at 10 µM: 106%
SNB-19
  growth, % of control at 10 µM: 96.9%
RPMI-8226
  growth, % of control at 10 µM: 106%
UACC-62
  growth, % of control at 10 µM: 93.5%
Hs-578T
  growth, % of control at 10 µM: 92.5%
IGROV-1
  growth, % of control at 10 µM: 106%
OVCAR-5
  growth, % of control at 10 µM: 101%
SF-268
  growth, % of control at 10 µM: 99.7%
MDA-MB-435
  growth, % of control at 10 µM: 101%
NCI-H23
  growth, % of control at 10 µM: 99%
HOP-62
  growth, % of control at 10 µM: 93.8%
SNB-75
  growth, % of control at 10 µM: 82.2%
MCF7
  growth, % of control at 10 µM: 92.3%
DU-145
  growth, % of control at 10 µM: 109%
NCI-H522
  growth, % of control at 10 µM: 71.1%
CAKI-1
  growth, % of control at 10 µM: 95.8%
SK-MEL-28
  growth, % of control at 10 µM: 106%
EKVX
  growth, % of control at 10 µM: 91.9%
A498
  growth, % of control at 10 µM: 87%
SN12C
  growth, % of control at 10 µM: 103%
NCI-H226
  growth, % of control at 10 µM: 92%
PC-3
  growth, % of control at 10 µM: 90.7%
SK-MEL-5
  growth, % of control at 10 µM: 96.9%
T47D
  growth, % of control at 10 µM: 91.4%
TK-10
  growth, % of control at 10 µM: 103%
SR
  growth, % of control at 10 µM: 76.5%
HCC 2998
  growth, % of control at 10 µM: 107%

From ChEMBL document CHEMBL4145553, “Design, synthesis, and biological evaluation of novel amide and hydrazide based thioether analogs targeting Histone deacteylase (HDAC) enzymes” (Eur J Med Chem, 2018)
